Experimental data as given in patent US12404304B1, “Telomerase reverse transcriptase (TERT) expression enhancing compounds and methods for using the same” (Sierra Sciences, LLC, priority 2007, dated 2025).

Legend:
[1] = system: human TERT expression (hTERT mRNA); assay: Quantitative real-time RT-PCR of hTERT mRNA expression (Ct, transcripts) in compound-treated cells; type: cell-based
Method in brief: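 Read-out is cycle threshold, the cycle at which probe fluorescence released by Taq 5′-nuclease activity crosses a set level; Ct falls as hTERT mRNA rises. cDNA of treated and untreated cells was compared, with starting transcripts quantified against a known-cDNA standard curve.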

viable cells in culture = assay: Cell viability assay (CellTiter-Glo Luminescent Cell Viability Assay, ATP quantitation, percent of vehicle control)

| Compound | Average Number of hTERT Transcripts [1] | Average Cell Viability after 24 Hours (% DMSO) (viable cells in culture) |
| --- | --- | --- |
| COc1ccc(CCNC(=O)c2cc(-c3cccs3)on2)cc1O [compound 1502] | 28.74 | 91.65 |
| Cc1cc(CNC(=O)c2cc(-c3cccs3)on2)no1 [compound 1503] | 28.94 | 108.11 |
| CN(C)S(=O)(=O)c1ccc(C(=O)Nc2nc(-c3ccccn3)cs2)cc1 [compound 1504] | 40.27 | 76.43 |
| O=C(Nc1nc(-c2ccccn2)cs1)c1cc(Cl)sc1Cl [compound 1505] | 43.28 | 70.89 |
| O=C(NCCN1CCOCC1)c1cc(-c2ccccc2)on1 [compound 1506] | 52.39 | 84.31 |
| CCCCOCCCNC(=O)c1cc(-c2cccs2)on1 [compound 1507] | 58.76 | 102.58 |
| O=C(NCCOc1ccccc1)c1cc(-c2cccs2)on1 [compound 1508] | 59.45 | 94.22 |
| O=C(NCCN1CCNC1=O)c1cc(-c2cccs2)on1 [compound 1509] | 72.08 | 73.34 |
| CN(CC1CCCO1)S(=O)(=O)c1ccc(C(=O)Nc2nc(-c3ccccn3)cs2)cc1 (centres unmarked) [compound 1510] | 76.03 | 83.99 |
| CC(C)CCNC(=O)c1cc(-c2cccs2)on1 [compound 1511] | 88.76 | 75.76 |
| Cc1ccc(S(=O)(=O)CC(=O)Nc2ncc(-c3ccccn3)s2)cc1 [compound 1512] | 102.66 | 81.39 |
| Cc1ccn(CCCNC(=O)c2cc(-c3cccs3)on2)n1 [compound 1513] | 102.76 | 82.67 |
| CN1CCN(CCCNC(=O)c2cc(-c3cccs3)on2)CC1 [compound 1514] | 102.98 | 98.72 |
| CN(C)CCCCNC(=O)c1cc(-c2cccs2)on1 [compound 1515] | 113.63 | 96.89 |
| Cn1c(-c2nnc(SCC(=O)NCc3nc4ccccc4n3C)o2)cc2ccccc21 [compound 1516] | 127.39 | 87.09 |
| CSCCNC(=O)c1cc(-c2cccs2)on1 [compound 1517] | 140.89 | 112.40 |
| O=C(NCCCN1CCCC1=O)c1cc(-c2cccs2)on1 [compound 1518] | 302.69 | 104.12 |
| Cc1cnc(CNC(=O)c2cc(-c3cccs3)on2)cn1 [compound 1519] | 303.81 | 110.34 |
| COc1cc(CCNC(=O)c2cc(-c3cccs3)on2)ccc1O [compound 1520] | 322.93 | 98.51 |
| O=C(NCCc1ccccn1)c1cc(-c2cccs2)on1 [compound 1521] | 329.90 | 106.64 |
| O=C(NCCCn1ccnc1)c1cc(-c2ccccc2)on1 [compound 1522] | 345.10 | 80.72 |
| O=C(NCCc1ccncc1)c1cc(-c2cccs2)on1 [compound 1524] | 562.51 | 103.34 |
| O=C(OCc1ccc(Cl)cc1Cl)c1ccc(-c2nnc(-c3ccccc3)o2)cc1 [compound 1525] | 7.73 | 83.30 |
| CCOc1cccc(/C=N/NC(=O)CNc2ccc(C)cc2)c1O [compound 1526] | 8.14 | 79.56 |
| O=C(N/N=C/c1c(O)ccc2ccccc12)c1ccc(CO)nc1 [compound 1527] | 15.53 | 89.01 |

| Compound | Average Number of hTERT Transcripts [1] | Average Cell Viability after 24 Hours (% DMSO) (viable cells in culture) |
| --- | --- | --- |
| CCN(CC)c1ccc(/C=N/NC(=O)C2CC2c2ccccc2)c(O)c1 (centres unmarked) [compound 1528] | 24.18 | 69.89 |
| COc1cccc(/C=N/NC(=O)C2CC2c2ccccc2)c1O (centres unmarked) [compound 1529] | 29.94 | 102.67 |
| C/C(=N\NC(=O)c1ccccc1O)c1ccccc1O [compound 1530] | 30.46 | 96.99 |
| C/C(=N\NC(=O)c1c(O)ccc2ccccc12)c1ccccc1C(=O)O [compound 1531] | 32.70 | 110.91 |
| Cc1c(OS(=O)(=O)c2ccccc2)ccc2c3c(c(=O)oc12)CCCC3 [compound 1533] | 35.76 | 99.57 |
| CS(=O)(=O)N1CCN(c2ccc(NC(=O)c3cccc(OCc4ccccc4)c3)cc2)CC1 [compound 1534] | 3.18 | 90.05 |
| Cc1ccc(S(=O)(=O)Nc2ccc([N+](=O)[O-])cc2)cc1 [compound 1535] | 3.69 | 88.02 |
| COC(=O)COc1ccc(NC(=O)c2ccccc2I)cc1 [compound 1536] | 7.34 | 65.12 |
| COC(=O)COc1ccc(NC(=O)c2cccc(C)c2)cc1 [compound 1537] | 9.58 | 67.92 |
| CC(C)c1cccc(C(C)C)c1NC(=O)c1ccc(OCC(=O)OC2CCCCC2)cc1 [compound 1538] | 10.53 | 74.17 |
| Cc1ccc(C)c(NC(=O)c2ccccc2NS(=O)(=O)c2cc([N+](=O)[O-])ccc2C)c1 [compound 1539] | 37.11 | 65.11 |
| S=C(Nc1ccc(Oc2ccccc2)cc1)Nc1ccc(Cl)cc1Cl [compound 1540] | 9.11 | 68.10 |
| COc1ccc(NC(=S)NCc2ccco2)c(OC)c1 [compound 1541] | 3.41 | 104.75 |
| CCN(Cc1ccncc1)C(=O)c1cccs1 [compound 1542] | 3.43 | 111.82 |
| CCOC(=O)c1c(NC(=O)CCN2C(=O)c3ccccc3C2=O)sc2c1CCC(C)C2 (centres unmarked) [compound 1543] | 3.71 | 82.75 |
| OCCN1CCN(c2ncnc3scc(-c4ccccc4)c23)CC1 [compound 1544] | 3.85 | 104.59 |
| CC1CCc2c(sc3ncnc(N4CCCC(C)C4)c23)C1 (centres unmarked) [compound 1545] | 4.40 | 43.72 |
| Cc1ccccc1OCC(=O)OCc1ccc([N+](=O)[O-])cc1 [compound 1548] | 5.77 | 99.62 |
| COC(=O)c1ccc(COC(=O)CCS(=O)(=O)c2ccc(C)cc2)cc1 [compound 1549] | 8.60 | 99.71 |
| C=CCN(CC=C)CCCOc1ccccc1 [compound 1550] | 12.90 | 96.87 |
| COC(=O)COc1ccc(S(=O)(=O)NCc2ccc(C)cc2)cc1 [compound 1551] | 16.60 | 40.32 |
| c1ccc(-c2nc3ccccn3c2Nc2ccc3c(c2)OCCO3)nc1 [compound 1552] | 21.09 | 64.55 |
| O=C(COc1ccccc1)Nc1ccc(C(=O)NCC2COc3ccccc3O2)cc1 (centres unmarked) [compound 1553] | 23.58 | 77.33 |
| Cc1ccc(NC(=O)CCC(=O)OCC(=O)c2ccc(Br)cc2)c(C)c1 [compound 1554] | 46.62 | 71.31 |
